Measurements as given in paper PMC9812224, “Analysis of the conformational heterogeneity of the Rieske iron–sulfur protein in complex III2 by cryo-EM” (IUCrJ, 2023).

Molecular target: T1, CIII2 (respiratory complex III dimer, cytochrome bc1 complex) (Yarrowia lipolytica, UniProt Q9B6D0)
T1 construct: gene COB; native homodimeric complex from DDM-solubilized mitochondrial membranes after depletion of His-tagged complex I; untagged; ion exchange and size exclusion; with Cytochrome c1, heme protein, mitochondrial; Cytochrome b-c1 complex subunit 1, mitochondrial; Cytochrome b-c1 complex subunit 2, mitochondrial; Cytochrome b-c1 complex subunit 6; Cytochrome b-c1 complex subunit 7; Cytochrome b-c1 complex subunit 8; Cytochrome b-c1 complex subunit 9; Cytochrome b-c1 complex subunit 10
T1 sequence (Q9B6D0 1-385): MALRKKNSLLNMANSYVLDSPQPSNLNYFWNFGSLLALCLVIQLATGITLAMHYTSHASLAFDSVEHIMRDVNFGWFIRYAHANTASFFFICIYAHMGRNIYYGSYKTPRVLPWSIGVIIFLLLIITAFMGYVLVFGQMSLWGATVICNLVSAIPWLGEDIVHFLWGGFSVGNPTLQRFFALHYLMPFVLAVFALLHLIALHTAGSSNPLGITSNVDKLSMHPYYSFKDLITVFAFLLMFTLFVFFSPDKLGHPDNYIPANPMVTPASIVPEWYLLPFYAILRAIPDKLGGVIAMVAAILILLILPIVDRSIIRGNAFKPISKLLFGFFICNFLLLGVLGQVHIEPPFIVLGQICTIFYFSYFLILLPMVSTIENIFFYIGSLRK
Assay: cryo-EM structure
Format: binding
Details: pH 8.0

For `O=C1C(O)=C([C@H]2CC[C@H](c3ccc(Cl)cc3)CC2)C(=O)c2ccccc21` [atovaquone], which cryo-EM structure (Qo site (cyt b; hydrogen bond to His190 of Rip1), with antimycin A, 120 µM) is on record?
The cryo-EM structure was “Atovaquone was resolved in the Qo site in the +atovaquone+antimycin A sample”.

Which cryo-EM structure (Qi site (cyt b only), 1 mM, substrate analogue) does the source give for `CCCCCCCCCCc1c(C)c(O)c(OC)c(OC)c1O` [decylubiquinol] here?
The cryo-EM structure was “After its addition, decylubiquinol was resolved in the Qi site”.

For `CCCCCCCCCCC1=C(C)C(=O)C(OC)=C(OC)C1=O` [decylubiquinone], which cryo-EM structure (Qo site, possible low occupancy, 330 µM with 25 mM sodium ascorbate, quinone analogue) is on record?
Its cryo-EM structure is “density in the Qo site increased, indicating a possible low occupancy of DQ”.
